Structures are written as SMILES.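 How tested: cells in 96-well plates exposed to compound for 48 hours at five concentrations. At the GI50, growth is halved. At the TGI there is no net growth.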 *1 amine or outer side, *2 acyl side, *3 side chain or, on linkers, in order; H or OH if unused. Where a SMILES comes first, the peptide text is derived from it. [ ]: non-standard residue; d: D form. ξ: configuration not given here. X21 = CC[C@@H](C)C(N[*:1])C(=O)[*:2]; ξR = N=C(N)NCCCC(N)C(=O)O; ξI = CCC(C)C(N)C(=O)O; ξL = CC(C)CC(N)C(=O)O; ξK = NCCCCC(N)C(=O)O; ξV = CC(C)C(N)C(=O)O; ξA = CC(N)C(=O)O A value given as a limit tells only on which side of the number the result lay.

Test systems include HCT-15 colon; UACC-62 melanoma; RXF 393 renal; MDA-MB-231 breast; MCF7 breast; OVCAR-8 ovarian; U251 CNS; OVCAR-3 ovarian; CCRF-CEM leukemia; SK-MEL-2 melanoma.
Holding throughout (experiment): inhibition of tumour cell growth, NCI panel, 48 h

Consider `CC(C)Nc1ncc2cc(Oc3ccc(F)cc3F)c(=O)n(C)c2n1`, for which the GI50 is > 25 µM in the assay on HCT-15 colon; > 25 µM in the assay on UACC-62 melanoma; 12.7 µM in the assay on RXF 393 renal; 21 µM with MDA-MB-231 breast; > 25 µM with MCF7 breast; > 25 µM in the assay on OVCAR-8 ovarian. Besides, the GI50 in the assay with U251 CNS, in the assay with OVCAR-3 ovarian, in the assay on CCRF-CEM leukemia and with SK-MEL-2 melanoma was > 25 µM in each case. For the same molecule, the TGI in the assay with HCT-15 colon, in the assay with UACC-62 melanoma, with RXF 393 renal, in the assay on MDA-MB-231 breast, in the assay with MCF7 breast and in the assay on OVCAR-8 ovarian was > 25 µM throughout. In addition, the TGI in the assay on U251 CNS, with OVCAR-3 ovarian, in the assay on CCRF-CEM leukemia and with SK-MEL-2 melanoma was > 25 µM in each case.
On to `Nc1ncnc2c1cnn2Cc1ccc(Cl)cc1`, for which the TGI in the assay on HCT-15 colon, in the assay on UACC-62 melanoma, in the assay on RXF 393 renal, in the assay with MDA-MB-231 breast, with MCF7 breast and with OVCAR-8 ovarian was > 100 µM in each case. In addition, the TGI in the assay with U251 CNS, with OVCAR-3 ovarian, in the assay on CCRF-CEM leukemia and in the assay with SK-MEL-2 melanoma was > 100 µM each time. Also, the GI50 in the assay with UACC-62 melanoma and in the assay on SK-MEL-2 melanoma was > 100 µM each time.
Take `Cn1c(=O)c(Oc2ccccc2)cc2cnc(NC3CCOCC3)nc21`: the GI50 in the assay with HCT-15 colon, in the assay on UACC-62 melanoma, in the assay with RXF 393 renal, in the assay with MDA-MB-231 breast, in the assay with MCF7 breast and with OVCAR-8 ovarian was > 25 µM in each case. Besides, the GI50 with U251 CNS, in the assay with OVCAR-3 ovarian, in the assay with CCRF-CEM leukemia and with SK-MEL-2 melanoma was > 25 µM throughout. Besides, the TGI with HCT-15 colon, with UACC-62 melanoma, with RXF 393 renal, in the assay on MDA-MB-231 breast, with MCF7 breast and in the assay on OVCAR-8 ovarian was > 25 µM each time. In addition, the TGI in the assay on U251 CNS, in the assay with OVCAR-3 ovarian, with CCRF-CEM leukemia and in the assay with SK-MEL-2 melanoma was > 25 µM each time.
In the case of `CCC(C)C1NC(=O)C(CC(C)C)NC(=O)C(C)NC(=O)C(C(C)C)NC(=O)C(CCCCN)NC(=O)C(CC(C)C)NC(=O)C(C(C)C)NC(=O)[C@H](C)NC(=O)C(C(C)CC)NC(=O)C(CCCN=C(N)N)NC(=O)C(CCCCN)NC(=O)C(CCCN=C(N)N)NC(=O)C(CCCCN)NC(=O)C([C@H](C)CC)NC(=O)C(CCCCN)NC1=O` (stereo partly specified) (cyclo(A[ξV][ξL][ξK][ξV][ξA][ξL][ξI][ξK][X21][ξK][ξR][ξK][ξR][ξI])), the GI50 in the assay on HCT-15 colon was 1.48 µM; in the assay with UACC-62 melanoma, 1.26 µM; in the assay with RXF 393 renal it was 1.52 µM; in the assay on MDA-MB-231 breast, 1.62 µM; with MCF7 breast, 1.54 µM; with OVCAR-8 ovarian it was 1.48 µM. For the same molecule, the GI50 in the assay on U251 CNS was 1.5 µM; with OVCAR-3 ovarian it was 1.2 µM; with CCRF-CEM leukemia, 1.43 µM; with SK-MEL-2 melanoma, 1.72 µM. Also, the TGI with HCT-15 colon turned out to be 3.58 µM; in the assay on UACC-62 melanoma, 2.85 µM; in the assay with RXF 393 renal, 2.96 µM; in the assay with MDA-MB-231 breast it was 3.73 µM; in the assay on MCF7 breast, 5.65 µM; in the assay on OVCAR-8 ovarian, 4.87 µM. Besides, the TGI in the assay with U251 CNS was determined as 3.44 µM; in the assay with OVCAR-3 ovarian it was 2.87 µM; in the assay on CCRF-CEM leukemia it was 5.07 µM; with SK-MEL-2 melanoma, 4.09 µM.
`NC(=O)c1ccc2nc3c(n2c1)C(=O)C(=O)c1ccccc1-3`: the GI50 in the assay with HCT-15 colon was 1.46 µM; in the assay with UACC-62 melanoma, 0.545 µM; with RXF 393 renal it was 1.64 µM; with MDA-MB-231 breast, 0.85 µM; with MCF7 breast, 0.23 µM; in the assay on OVCAR-8 ovarian, 0.403 µM. The GI50 in the assay with U251 CNS was 0.296 µM; in the assay on OVCAR-3 ovarian it was 0.24 µM; in the assay with CCRF-CEM leukemia it was 0.931 µM; with SK-MEL-2 melanoma, 0.633 µM. Further, the TGI came to 3.55 µM in the assay with HCT-15 colon; 1.77 µM in the assay on UACC-62 melanoma; 3.02 µM with RXF 393 renal; 2.32 µM with MDA-MB-231 breast; 0.702 µM in the assay on MCF7 breast; 1.63 µM in the assay with OVCAR-8 ovarian. Moreover, the TGI with U251 CNS was 0.928 µM; with OVCAR-3 ovarian, 0.63 µM; in the assay on CCRF-CEM leukemia, 5.42 µM; with SK-MEL-2 melanoma, 1.91 µM.
As for `O=C1CS/C(=N\S(=O)(=O)c2ccc(N3N=C4c5ccccc5CC4C3c3ccc(Cl)cc3)cc2)N1c1ccccc1` (stereo unspecified), the GI50 is 34.8 µM in the assay on HCT-15 colon; 30.1 µM in the assay with UACC-62 melanoma; 29.4 µM in the assay with RXF 393 renal; 86 µM in the assay on MDA-MB-231 breast; 18.7 µM in the assay with MCF7 breast; 34.6 µM in the assay on OVCAR-8 ovarian. Also, the GI50 with U251 CNS was 27.8 µM; in the assay on OVCAR-3 ovarian, 48.5 µM; in the assay with CCRF-CEM leukemia it was 13.7 µM; in the assay on SK-MEL-2 melanoma it was > 100 µM. Also, the TGI in the assay with HCT-15 colon is > 100 µM; in the assay with UACC-62 melanoma, 77.3 µM; in the assay on RXF 393 renal it was 81.3 µM; with MDA-MB-231 breast, > 100 µM; in the assay on MCF7 breast it was 47.9 µM; in the assay with OVCAR-8 ovarian it was > 100 µM. Besides, the TGI with U251 CNS is 64.8 µM; with OVCAR-3 ovarian, > 100 µM; in the assay with CCRF-CEM leukemia, 58.3 µM; in the assay on SK-MEL-2 melanoma, > 100 µM.
On to `O=C(COc1cccc(/C=C2\CSc3ccccc3C2=O)c1)c1ccc(Cl)cc1`, for which the GI50 in the assay on HCT-15 colon is 1.92 µM; with UACC-62 melanoma, 1.65 µM; with RXF 393 renal, 2.67 µM; in the assay on MDA-MB-231 breast, 4.48 µM; in the assay on MCF7 breast it was 0.458 µM; in the assay with OVCAR-8 ovarian it was 2.53 µM. Also, the GI50 in the assay on U251 CNS was 1.42 µM; in the assay on OVCAR-3 ovarian it was 1.8 µM; in the assay with CCRF-CEM leukemia, 0.325 µM; in the assay on SK-MEL-2 melanoma, 1.76 µM. For the same molecule, the TGI in the assay on HCT-15 colon was found to be 5.37 µM; in the assay with UACC-62 melanoma it was 3.24 µM; in the assay with RXF 393 renal, 6.73 µM; in the assay with MDA-MB-231 breast, 14.8 µM; in the assay on MCF7 breast, 1.81 µM; in the assay on OVCAR-8 ovarian, 6.81 µM. For the same molecule, the TGI came to 2.72 µM in the assay on U251 CNS, 3.51 µM in the assay with OVCAR-3 ovarian and 3.45 µM with SK-MEL-2 melanoma.

The values are drawn from PubChem BioAssay (NCI).
